For this assay, the target named is T1, human 5-HT6 receptor (Homo sapiens, UniProt P50406).
T1 construct: host or cells: CHO-K1 cells, stably transfected; membranes prepared in house
In words: Human 5-HT6 Receptor Binding Assay ([3H]LSD displacement, scintillation beads). As to conditions: membranes of CHO-K1 cells with recombinant human 5-HT6, 4 nM [3H]LSD; Table 1, class symbols; read-out: h5-HT6 (Ki).

SMILES strings stand for the structures. Counter-ions that a name gives are not always drawn.

T1 sequence (P50406 whole entry): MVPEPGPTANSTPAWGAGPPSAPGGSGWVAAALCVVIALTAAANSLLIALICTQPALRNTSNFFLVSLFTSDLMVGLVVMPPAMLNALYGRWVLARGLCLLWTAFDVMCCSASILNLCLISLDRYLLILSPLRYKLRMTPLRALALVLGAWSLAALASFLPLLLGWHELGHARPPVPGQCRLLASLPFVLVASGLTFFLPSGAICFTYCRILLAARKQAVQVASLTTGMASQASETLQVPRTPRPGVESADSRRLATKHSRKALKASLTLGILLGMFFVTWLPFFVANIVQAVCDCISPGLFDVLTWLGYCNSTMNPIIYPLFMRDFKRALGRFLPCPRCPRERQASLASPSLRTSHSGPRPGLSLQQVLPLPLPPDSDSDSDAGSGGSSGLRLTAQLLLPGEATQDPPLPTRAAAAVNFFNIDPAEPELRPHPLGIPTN

What is called Ki is a dissociation constant, usually derived from enzyme kinetics or from competition with a known ligand. For the compound `CC1(C)CNC(C2CCOCC2)c2oc3cc(S(=O)(=O)c4cccc(F)c4)ccc3c21` (racemic) [Example 45, 7-[(3-fluorophenyl)sulfonyl]-4,4-dimethyl-1-(tetrahydro-2H-pyran-4-yl)-1,2,3,4-tetrahydro[1]benzofuro[2,3-c]pyridine], the Ki is below 500 nM.

As for `O=S(=O)(Oc1ccc2c(c1)C1CCNCC1O2)c1c(Cl)nc2sccn12` (centres unmarked) [Example 698], the Ki was below 500 nM.

Take `CC1OCCC12NCCc1c2oc2cc(S(=O)(=O)c3cccc(F)c3)ccc12` (single isomer, unassigned) [Example 61, 7-[(3-Fluorophenyl)sulfonyl]-2′-methyl-3,4,4′,5′-tetrahydro-2H-spiro[1-benzofuro[2,3-c]pyridine-1,3′-furan]]: the Ki is below 500 nM. Consider `O=S(=O)(c1ccc2c(c1)OC1CNCCC21)c1cccc2cccnc12` (centres unmarked) [Example 332], for which the Ki is below 500 nM.

In the case of `O=S(=O)(c1ccccc1)c1ccc2c3c(oc2c1)CN(CC(F)(F)F)CC3` [Example 598], the Ki is below 500 nM.

For `O=S(=O)(c1ccc2c(c1)C1CCNCC1O2)N1CCc2ccccc2C1` (centres unmarked) [Example 856], the Ki is below 500 nM. As to `O=S(=O)(Oc1ccc2c(c1)C1CCNCC1O2)c1cccc2cccnc12` (centres unmarked) [Example 722], the inhibition constant Ki lay within 500 to 1000 nM.

For `O=S(=O)(Oc1ccc2c(c1)C1CCNCC1O2)c1cccc2cnccc12` (centres unmarked) [Example 745], the inhibition constant Ki is above 1000 nM. For the compound `Cc1c(Cl)cccc1S(=O)(=O)Oc1ccc2c(c1)OC1CNCCC21` (centres unmarked) [Example 658], the inhibition constant Ki was below 500 nM. On to `O=S(=O)(c1ccc(OC(F)(F)F)cc1)c1ccc2c3c(oc2c1)CNCC3` [Example 227, 7-{[4-(trifluoromethoxy)phenyl]sulfo-nyl}-1,2,3,4-tetrahydro[1]benzofuro[2,3-c]pyridine], for which the Ki is below 500 nM. As to `Cc1ccc(F)cc1S(=O)(=O)c1ccc2c3c(oc2c1)CNCC3` [Example 206], the Ki was below 500 nM. Under `O=S(=O)(Oc1ccc2c(c1)OC1CNCCC21)c1cccc2cccnc12` (centres unmarked) [Example 662] stands below 500 nM; under `CC1(C)NCCc2c1oc1cc(S(=O)(=O)c3cc(F)cc(F)c3)ccc21` [Example 293], below 500 nM; under `O=S(=O)(c1ccc2c3c(oc2c1)CNCC3)c1cccnc1Cl` [Example 436], below 500 nM.

Regarding `O=S(=O)(c1ccc2oc3c(c2c1)CCNC3)c1c(F)c(F)cc(F)c1F` [Example 274], the inhibition constant (Ki) was below 500 nM. Turning to `COc1ccc(S(=O)(=O)c2ccc3c4c(oc3c2)C(C)(C)NCC4)cc1F` [Example 288], the inhibition constant (Ki) was below 500 nM. On to `O=S(=O)(Oc1ccc2c(c1)OC1CNCCC21)c1c(Cl)nc2sccn12` (centres unmarked) [Example 793], for which the Ki is below 500 nM. Turning to `COCCCOc1cccc(S(=O)(=O)c2ccc3c(c2)OC2CNCCC32)c1` (centres unmarked) [Example 576], the Ki is below 500 nM. Turning to `CNC(=O)c1cccc(S(=O)(=O)c2ccc3c4c(oc3c2)CNCC4)c1` [Example 478], the Ki lay in the range of 500 to 1000 nM.

In the case of `COc1cc(OC)cc(S(=O)(=O)c2ccc3c(c2)OC2CNCCC32C)c1` (centres unmarked) [Example 487], the Ki was below 500 nM. `CC(C)Oc1cccc(S(=O)(=O)c2ccc3c(c2)OC2CNCCC32)c1F` (centres unmarked) [Example 483]: the inhibition constant Ki was below 500 nM. For the compound `COc1cc(OC)cc(S(=O)(=O)c2ccc3c(c2)OC2CNCCC32C)c1` (centres unmarked) [Example 490], the Ki was below 500 nM.

On to `O=S(=O)(c1cccc(F)c1)c1ccc2oc3c(c2c1)CCNC3C1CCCC1` (centres unmarked) [Example 513], for which the Ki was below 500 nM. On to `O=S(=O)(Oc1ccc2c(c1)OC1CNCCC21)c1cccc(Cl)c1` (centres unmarked) [Example 653], for which the inhibition constant (Ki) is below 500 nM.

For `Cc1cc(S(=O)(=O)c2ccc3oc4c(c3c2)CCNC4)ccc1F` [Example 268], the Ki is below 500 nM. Consider `O=S(=O)(c1cccc(F)c1)c1ccc2oc3c(c2c1)CCNC3C1CCOC1` (centres unmarked) [Example 516], for which the inhibition constant Ki was below 500 nM.

As for `O=S(=O)(c1ccc2c(c1)OC1CNCCC21)c1cccc(OCC2CCOCC2)c1F` (centres unmarked) [Example 482], the Ki is below 500 nM. Under `CC(C)(C)c1ccc(S(=O)(=O)Oc2ccc3c(c2)C2CCNCC2O3)cc1` (centres unmarked) [Example 727] stands 500 to 1000 nM. As to `O=S(=O)(c1ccc2c(c1)OC1CNCCC21)c1cccc(F)c1F` (centres unmarked) [Example 388], the inhibition constant (Ki) was below 500 nM. For the compound `Cc1ccc(S(=O)(=O)Oc2ccc3c(c2)OC2CNCCC32)cc1` (centres unmarked) [Example 642], the inhibition constant Ki is below 500 nM.

For the compound `O=S(=O)(c1ccc2c(c1)OC1CNCCC21)c1ccccc1Cl` (centres unmarked) [Example 113], the Ki is below 500 nM. Regarding `O=S(=O)(c1ccccc1)c1ccc2c3c(oc2c1)C1(CCCOC1)NCC3` (single isomer, unassigned) [Example 544, 7-(Phenylsulfonyl)-3,4,5′,6′-tetrahydro-2H,4′H-spiro[1-benzofuro[2,3-c]pyridine-1,3′-pyran]hydrochloride], the inhibitory constant (Ki) fell in the range of 500 to 1000 nM. Under `COc1c(F)cc(F)cc1S(=O)(=O)c1ccc2c(c1)OC1CNCCC21C` (centres unmarked) [Example 486] stands below 500 nM; under `N#Cc1ccc(S(=O)(=O)c2ccc3c4c(oc3c2)CNCC4)cc1` [Example 220], below 500 nM; under `O=S(=O)(Oc1ccc2c(c1)OC1CNCCC21)c1cccc2nsnc12` (centres unmarked) [Example 669], below 500 nM. Under `O=S(=O)(Oc1ccc2c(c1)OC1CNCCC21)c1ccc2c(c1)OCCO2` (centres unmarked) [Example 668] stands below 500 nM. Under `O=S(=O)(c1cncc(F)c1)c1ccc2c(c1)OC1CNCCC21` (centres unmarked) [Example 397] stands above 1000 nM. Take `Cc1cccc(S(=O)(=O)c2ccc3c4c(oc3c2)CNCC4)c1` [Example 221]: the Ki is below 500 nM. Take `O=S(=O)(Oc1ccc2c(c1)OC1CNCCC21)c1ccc2ccccc2c1` (centres unmarked) [Example 661]: the inhibition constant Ki is below 500 nM. Regarding `CCN1CCC2c3ccc(S(=O)(=O)c4ccccc4)cc3OC2C1` (centres unmarked) [Example 605], the inhibition constant (Ki) fell in the range of 500 to 1000 nM. Take `CN(C)C(=O)CC1(C)NCCc2c1oc1cc(S(=O)(=O)c3cccc(F)c3)ccc21` (single isomer, unassigned) [Example 51, 2-{7-[(3-fluorophenyl)sulfonyl]-1-methyl-1,2,3,4-tetrahydro[1]benzofuro[2,3-c]pyridin-1-yl}-N,N-dimethylacetamide]: the Ki is below 500 nM. Under `COc1cccc(S(=O)(=O)c2ccc3c(c2)OC2CNCCC32)c1` (centres unmarked) [Example 118] stands below 500 nM; under `O=S(=O)(c1cccc(F)c1)c1ccc2oc3c(c2c1)CCNC3C1CCOCC1` (centres unmarked) [Example 520], below 500 nM; under `O=S(=O)(c1ccc2c3c(oc2c1)CNCC3)c1cccc2c1OCCO2` [Example 467], below 500 nM. For `COc1cccc(COc2cccc(S(=O)(=O)c3ccc4c(c3)OC3CNCCC43)c2)c1` (centres unmarked) [Example 575], the Ki was below 500 nM.

For `CC1(C)NCCc2c1oc1cc(S(=O)(=O)c3cc(Cl)c[n+]([O-])c3N)ccc21` [Example 371], the inhibitory constant (Ki) is below 500 nM. Take `O=S(=O)(c1cccc(Br)c1)c1ccc2c3c(oc2c1)CNCC3` [Example 212, 7-[(3-bromophenyl)sulfonyl]-1,2,3,4-tetrahydro[1]benzofuro[2,3-c]pyridine]: the Ki is below 500 nM. `O=S(=O)(c1cccc(OCC(F)F)c1)c1ccc2c(c1)OC1CNCCC21` (centres unmarked) [Example 578]: the Ki was below 500 nM. Regarding `CC(C)CN1CCc2c(oc3cc(S(=O)(=O)c4cccc(Cl)c4)ccc23)C1` [Example 600], the inhibition constant Ki is below 500 nM.

Turning to `CCC1(C)NCCc2c1oc1cc(S(=O)(=O)c3cccc(F)c3)ccc21` (racemic) [Example 27, 1-ethyl-7-[(3-fluorophenyl)sulfonyl]-1-methyl-1,2,3,4-tetrahydro[1]benzofuro[2,3-c]pyridine], the Ki is below 500 nM. As for `CC1(C)NCCc2c1oc1cc(S(=O)(=O)c3cccnc3N3CCOCC3)ccc21` [Example 368], the Ki was below 500 nM.

For `O=S(=O)(c1ccc(F)c(F)c1)c1ccc2oc3c(c2c1)CCNC3` [Example 240], the Ki is below 500 nM. As to `O=S(=O)(c1cccc(OCCn2cccc2)c1)c1ccc2c(c1)OC1CNCCC21` (centres unmarked) [Example 573], the Ki was below 500 nM.

As to `CC(C)c1ccc(S(=O)(=O)c2ccc3oc4c(c3c2)CCNC4)cc1` [Example 259], the Ki was below 500 nM.

With `COc1cccc(S(=O)(=O)Oc2ccc3c(c2)OC2CNCCC32)c1` (centres unmarked) [Example 651], the Ki is below 500 nM. With `Cc1cc(C)c(S(=O)(=O)Oc2ccc3c(c2)C2CCNCC2O3)c(C)c1` (centres unmarked) [Example 715], the inhibitory constant (Ki) is below 500 nM.

Regarding `O=S(=O)(c1ccc2c3c(oc2c1)CNCC3)c1cccnc1OCC(F)(F)F` [Example 440], the Ki was below 500 nM. Turning to `O=S(=O)(c1ccccc1)c1ccc2c3c(oc2c1)CNCC3` [Example 339, 7-(phenylsulfonyl)-1,2,3,4-tetrahydro[1]benzofuro[2,3-c]pyridine], the Ki is below 500 nM. As for `O=S(=O)(c1ccc2c(c1)OCCO2)c1ccc2oc3c(c2c1)CCNC3` [Example 247], the Ki is below 500 nM. In the case of `O=S(=O)(c1cccc(F)c1)c1ccc2oc3c(c2c1)CCNC3CCBr` (centres unmarked) [Example 514], the inhibition constant (Ki) is below 500 nM. Consider `O=S(=O)(c1ccc2c(c1)OC1CNCCC21)c1cccc2c1OCCO2` (centres unmarked) [Example 462], for which the inhibition constant Ki is above 1000 nM. Under `CC12CCNCC1Oc1ccc(OS(=O)(=O)c3ccccc3Cl)cc12` (centres unmarked) [Example 763] stands above 1000 nM; under `[O-][S+](c1ccc2c3c(oc2c1)CNCC3)c1cc(Cl)ccc1Cl` (centres unmarked) [Example 214], below 500 nM; under `O=S(=O)(c1cccc(C(F)(F)F)c1)c1ccc2c3c(oc2c1)C1(CCOC1)NCC3` (centres unmarked) [Example 307], below 500 nM.

For the compound `CC(C)c1ccc(S(=O)(=O)Oc2ccc3c(c2)OC2CNCCC32)cc1` (centres unmarked) [Example 795], the Ki was below 500 nM. In the case of `O=S(=O)(c1cccc(C(F)(F)F)c1)c1ccc2c(c1)OC1CNCCC21` (centres unmarked) [Example 126], the Ki was below 500 nM. Turning to `O=S(=O)(Nc1ccc2c(c1)C1CCNCC1O2)c1cc2ccccc2o1` (centres unmarked) [Example 833], the inhibitory constant (Ki) lay within 500 to 1000 nM. Regarding `O=S(=O)(c1cc(Cl)cc(Cl)c1)c1ccc2c3c(oc2c1)CNCC3` [Example 211, 7-[(3,5-dichlorophenyl)sulfonyl]-1,2,3,4-tetrahydro[1]benzofuro[2,3-c]pyridine], the inhibition constant (Ki) is below 500 nM.
